Test results as given in patent US11332477B2, “Nitrogen containing heterocycle substituted benzoxazine oxazolidinone compound and preparation method and use thereof” (INSTITUTE OF MATERIA MEDICA, CHINESE ACADEMY OF MEDICAL …, priority 2017, dated 2022).
In brackets after ≈: the same amount, converted by molar mass.

What was measured:
[1] = system: Mycobacterium tuberculosis H37Rv; experiment: Anti-tuberculosis activity test in vitro (Microplate Alamar Blue Assay, MABA); format: cell-based; conditions: M. tuberculosis H37Rv, MABA, 7H9 medium, method says MIC90 was calculated, read-out: MIC
[2] = system: Vero cells; experiment: Cytotoxicity test (MTT); format: cell-based; conditions: Chlorocebus sabaeus; Vero cells, MTT, 48 hours of incubation, highest concentration 64 μg/mL; read-out: IC50
[3] = system: mitochondrial protein synthesis; experiment: Activity of inhibiting mitochondrial protein synthesis; format: biochemical; conditions: mitochondrial protein synthesis inhibition, Table 3
Description: The experimental steps were carried out according to the literature (Antimicrobial Agents and Chemotherapy, 2006, 50 (6), 2042-2049).

Row | SMILES | MIC [1] [µg/mL] | IC50 [2] [µg/mL] | melting point [°C] | IC50 [3] [µg/mL]
1 | NC[C@@H]1OC(=O)N2c3cc(F)c(N4CCSCC4)cc3OC[C@@H]12 [Compound 1, (3S,3aS)-3-(Aminomethyl)-8-fluoro-7-thiomorpholino-3a, 4-dihydro-1H,3H-benzo[b]ox azolo[3,4-d][1,4]oxazin-1-one] | 0.029 (≈ 0.0854 µM) | 36 (≈ 106 µM) | 155 to 157 | 75.51 (≈ 222 µM)
2 | CC(C)C(=O)NC[C@@H]1OC(=O)N2c3cc(F)c(N4CCSCC4)cc3OC[C@@H]12 [Compound 5, N-(((3S,3aS)-8-Fluoro-1-oxo-7-thiomorpholino-3a,4-dihydro-1H,3H-benzo[b]oxazolo[3,4-d][1,4]oxazin-3-yl)methyl)isobutyramide] | 0.095 (≈ 0.232 µM) | > 64 | 193 to 195 | >100
3 | O=C(NC[C@@H]1OC(=O)N2c3cc(F)c(N4CCSCC4)cc3OC[C@@H]12)C1CC1 [Compound 6, N-(((3S,3aS)-8-Fluoro-1-oxo-7-thiomorpholino-3a,4-dihydro-1H,3H-benzo[b]oxazolo[3,4-d][1,4]oxazin-3-yl)methyl)cyclopropanecarboxamide] | 0.034 (≈ 0.0834 µM) | > 64 | 209 to 211 | >100
4 | O=C(NC[C@@H]1OC(=O)N2c3cc(F)c(N4CCSCC4)cc3OC[C@@H]12)C1CCC1 [Compound 7, N-(((3S,3aS)-8-Fluoro-1-oxo-7-thiomorpholino-3a,4-dihydro-1H,3H-benzo[b]oxazolo[3,4-d][1,4]oxazin-3-yl)methyl)cyclobutanecarboxamide] | 0.03 (≈ 0.0712 µM) | > 64 | 176 to 178 | 53.69 (≈ 127 µM)
5 | COC(=O)NC[C@@H]1OC(=O)N2c3cc(F)c(N4CCSCC4)cc3OC[C@@H]12 [Compound 8, Methyl (((3S,3aS)-8-Fluoro-1-oxo-7-thiomorpholino-3a,4-dihydro-1H,3H-benzo[b]oxazolo[3,4-d][1,4]oxazin-3-yl)methyl)carbamate] | 0.031 (≈ 0.078 µM) | > 64 | 155 to 156 | >100
6 | O=C1O[C@@H](CNc2ccon2)[C@@H]2COc3cc(N4CCSCC4)c(F)cc3N12 [Compound 9, (3S,3aS)-8-Fluoro-3-((isoxazol-3-ylamino)methyl)-7-thiomorpholino-3a,4-dihydro-1H,3H-benzo[b]oxazolo[3,4-d][1,4]oxazin-1-one] | 0.025 (≈ 0.0615 µM) | > 64 | 148 to 150 | >100
7 | O=C(NC[C@@H]1OC(=O)N2c3cc(F)c(N4CCSCC4)cc3OC[C@@H]12)c1ccncc1 [Compound 10, N-(((3S,3aS)-8-Fluoro-1-oxo-7-thiomorpholino-3a,4-dihydro-1H,3H-benzo[b]oxazolo[3,4-d][1,4]oxazin-3-yl)methyl)isonicotinamide] | 0.16 (≈ 0.36 µM) | > 64 | 135 to 137 | >100
8 | O=C(NC[C@@H]1OC(=O)N2c3cc(F)c(N4CCSCC4)cc3OC[C@@H]12)c1cnccn1 [Compound 11, N-(((3S,3aS)-8-Fluoro-1-oxo-7-thiomorpholino-3a,4-dihydro-1H,3H-benzo[b]oxazolo[3,4-d][1,4]oxazin-3-yl)methyl)pyrazine-2-carboxamide] | 0.115 (≈ 0.258 µM) | 40.7 (≈ 91.3 µM) | 212 to 214 | >100
9 | O=C1O[C@@H](Cn2ccnn2)[C@@H]2COc3cc(N4CCSCC4)c(F)cc3N12 [Compound 12, (3S,3aS)-3-((1H-1,2,3-Triazol-1-yl)methyl)-8-fluoro-7-thiomorpholino-3a,4-dihydro-1H,3H-benzo[b]oxazolo[3,4-d][1,4]oxazin-1-one] | 0.227 (≈ 0.58 µM) | > 64 | 223 to 225 | >100
